# Experimental data from PubChem BioAssay (NCI).
#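 GI50 is the concentration that inhibits growth by half. TGI is the concentration that stops growth completely.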
# What was measured:
# Experiment in all cases: NCI anticancer screen, dose series, 384-well format
# SR leukemia = tested on: SR leukemia
# UO-31 renal = tested on: UO-31 renal
# UACC-62 melanoma = tested on: UACC-62 melanoma
# ACHN renal = tested on: ACHN renal
# BT-549 breast = tested on: BT-549 breast
# HCT-15 colon = tested on: HCT-15 colon
# PC-3 prostate = tested on: PC-3 prostate
# RXF 393 renal = tested on: RXF 393 renal
# HCT-116 colon = tested on: HCT-116 colon
# MDA-MB-435 melanoma = tested on: MDA-MB-435 melanoma
# MDA-MB-231 breast = tested on: MDA-MB-231 breast
# RPMI-8226 leukemia = tested on: RPMI-8226 leukemia
# OVCAR-3 ovarian = tested on: OVCAR-3 ovarian
# NCI-H23 lung = tested on: NCI-H23 lung
# HCC-2998 colon = tested on: HCC-2998 colon
# SF-539 CNS = tested on: SF-539 CNS
# U251 glioblastoma = tested on: U251 glioblastoma
# MOLT-4 leukemia = tested on: MOLT-4 leukemia
# SN12C renal = tested on: SN12C renal
# MALME-3M melanoma = tested on: MALME-3M melanoma
# HL-60(TB) leukemia = tested on: HL-60(TB) leukemia
# NCI-H322M lung = tested on: NCI-H322M lung
# NCI-H522 lung = tested on: NCI-H522 lung
# SK-OV-3 ovarian = tested on: SK-OV-3 ovarian
# UACC-257 melanoma = tested on: UACC-257 melanoma
# M14 melanoma = tested on: M14 melanoma
# HOP-62 NSCLC = tested on: HOP-62 NSCLC
# OVCAR-8 ovarian = tested on: OVCAR-8 ovarian
# SF-268 CNS = tested on: SF-268 CNS
# A549 NSCLC = tested on: A549 NSCLC
# SF-295 CNS = tested on: SF-295 CNS
# K-562 leukemia = tested on: K-562 leukemia
# HT29 colon = tested on: HT29 colon
# LOX IMVI melanoma = tested on: LOX IMVI melanoma
# MCF7 breast = tested on: MCF7 breast
# SK-MEL-2 melanoma = tested on: SK-MEL-2 melanoma
# SK-MEL-5 melanoma = tested on: SK-MEL-5 melanoma
# SK-MEL-28 melanoma = tested on: SK-MEL-28 melanoma
# SNB-19 CNS = tested on: SNB-19 CNS
# COLO 205 colon = tested on: COLO 205 colon
# 786-0 renal = tested on: 786-0 renal
# TK-10 renal = tested on: TK-10 renal
# SW-620 colon = tested on: SW-620 colon
# CCRF-CEM leukemia = tested on: CCRF-CEM leukemia
# IGROV1 ovarian = tested on: IGROV1 ovarian
# KM12 colon = tested on: KM12 colon
# MDA-MB-468 breast = tested on: MDA-MB-468 breast
# NCI-H460 NSCLC = tested on: NCI-H460 NSCLC
smiles,measurement,setting,value
CN(C)C/C=C/C(=O)Nc1ccc(C(=O)N2CCC[C@@H](Nc3ncc(Cl)c(-c4c[nH]c5ccccc45)n3)C2)cc1,GI50,SR leukemia,16.4 nM
same,TGI,SR leukemia,30.3 nM
same,GI50,UO-31 renal,2190 nM
same,TGI,UO-31 renal,5380 nM
same,GI50,UACC-62 melanoma,92.7 nM
same,TGI,UACC-62 melanoma,321 nM
same,GI50,ACHN renal,1890 nM
same,TGI,ACHN renal,11200 nM
same,GI50,BT-549 breast,16.4 nM
same,TGI,BT-549 breast,37.6 nM
same,GI50,HCT-15 colon,3050 nM
same,TGI,HCT-15 colon,9820 nM
same,GI50,PC-3 prostate,46.3 nM
same,TGI,PC-3 prostate,371 nM
same,GI50,RXF 393 renal,24.5 nM
same,TGI,RXF 393 renal,77.7 nM
same,GI50,HCT-116 colon,31 nM
same,TGI,HCT-116 colon,1170 nM
same,GI50,MDA-MB-435 melanoma,27 nM
same,TGI,MDA-MB-435 melanoma,90.4 nM
same,GI50,MDA-MB-231 breast,25.4 nM
same,TGI,MDA-MB-231 breast,72.3 nM
same,GI50,RPMI-8226 leukemia,151 nM
same,TGI,RPMI-8226 leukemia,285 nM
same,GI50,OVCAR-3 ovarian,18 nM
same,TGI,OVCAR-3 ovarian,38.2 nM
same,GI50,NCI-H23 lung,27.4 nM
same,TGI,NCI-H23 lung,117 nM
same,GI50,HCC-2998 colon,17.8 nM
same,TGI,HCC-2998 colon,38.1 nM
same,GI50,SF-539 CNS,20.1 nM
same,TGI,SF-539 CNS,43.6 nM
same,GI50,U251 glioblastoma,48.2 nM
same,TGI,U251 glioblastoma,399 nM
same,GI50,MOLT-4 leukemia,21.6 nM
same,TGI,MOLT-4 leukemia,42.9 nM
same,GI50,SN12C renal,46.8 nM
same,TGI,SN12C renal,222 nM
same,GI50,MALME-3M melanoma,19.6 nM
same,TGI,MALME-3M melanoma,39.4 nM
same,GI50,HL-60(TB) leukemia,22.7 nM
same,TGI,HL-60(TB) leukemia,37.4 nM
same,GI50,NCI-H322M lung,27.4 nM
same,TGI,NCI-H322M lung,67.8 nM
same,GI50,NCI-H522 lung,19 nM
same,TGI,NCI-H522 lung,36.3 nM
same,GI50,SK-OV-3 ovarian,38.6 nM
same,TGI,SK-OV-3 ovarian,352 nM
same,GI50,UACC-257 melanoma,41.9 nM
same,TGI,UACC-257 melanoma,197 nM
same,GI50,M14 melanoma,106 nM
same,TGI,M14 melanoma,279 nM
same,GI50,HOP-62 NSCLC,159 nM
same,TGI,HOP-62 NSCLC,581 nM
same,GI50,OVCAR-8 ovarian,149 nM
same,TGI,OVCAR-8 ovarian,398 nM
same,GI50,SF-268 CNS,20.5 nM
same,TGI,SF-268 CNS,44.7 nM
same,GI50,A549 NSCLC,294 nM
same,TGI,A549 NSCLC,967 nM
same,GI50,SF-295 CNS,274 nM
same,TGI,SF-295 CNS,767 nM
same,GI50,K-562 leukemia,39.7 nM
same,TGI,K-562 leukemia,840 nM
same,GI50,HT29 colon,165 nM
same,TGI,HT29 colon,478 nM
same,GI50,LOX IMVI melanoma,25.6 nM
same,TGI,LOX IMVI melanoma,48 nM
same,GI50,MCF7 breast,26.6 nM
same,TGI,MCF7 breast,1290 nM
same,GI50,SK-MEL-2 melanoma,19.9 nM
same,TGI,SK-MEL-2 melanoma,48.8 nM
same,GI50,SK-MEL-5 melanoma,28.3 nM
same,TGI,SK-MEL-5 melanoma,135 nM
same,GI50,SK-MEL-28 melanoma,20.8 nM
same,TGI,SK-MEL-28 melanoma,48 nM
same,GI50,SNB-19 CNS,33.3 nM
same,TGI,SNB-19 CNS,1420 nM
same,GI50,COLO 205 colon,19 nM
same,TGI,COLO 205 colon,42.9 nM
same,GI50,786-0 renal,241 nM
same,TGI,786-0 renal,683 nM
same,GI50,TK-10 renal,389 nM
same,TGI,TK-10 renal,14700 nM
same,GI50,SW-620 colon,71.4 nM
same,TGI,SW-620 colon,410 nM
same,GI50,CCRF-CEM leukemia,28 nM
same,TGI,CCRF-CEM leukemia,74.5 nM
same,GI50,IGROV1 ovarian,22.9 nM
same,TGI,IGROV1 ovarian,69.5 nM
same,GI50,KM12 colon,34.7 nM
same,TGI,KM12 colon,160 nM
same,GI50,MDA-MB-468 breast,17.7 nM
same,TGI,MDA-MB-468 breast,33.7 nM
same,GI50,NCI-H460 NSCLC,184 nM
same,TGI,NCI-H460 NSCLC,424 nM
